Assays:
Settings in all cases: binder
STLK3 = STLK3 (Homo sapiens, UniProt Q9UEW8)
CK1e = CK1e (Homo sapiens, UniProt P49674)
CaMK2d = CaMK2d (Homo sapiens, UniProt Q13557)
PAK4 = PAK4 (Homo sapiens, UniProt O96013)
MYT1 = biological target: T1, MYT1 (Homo sapiens, UniProt Q99640)
T1 sequence (Q99640 1-499): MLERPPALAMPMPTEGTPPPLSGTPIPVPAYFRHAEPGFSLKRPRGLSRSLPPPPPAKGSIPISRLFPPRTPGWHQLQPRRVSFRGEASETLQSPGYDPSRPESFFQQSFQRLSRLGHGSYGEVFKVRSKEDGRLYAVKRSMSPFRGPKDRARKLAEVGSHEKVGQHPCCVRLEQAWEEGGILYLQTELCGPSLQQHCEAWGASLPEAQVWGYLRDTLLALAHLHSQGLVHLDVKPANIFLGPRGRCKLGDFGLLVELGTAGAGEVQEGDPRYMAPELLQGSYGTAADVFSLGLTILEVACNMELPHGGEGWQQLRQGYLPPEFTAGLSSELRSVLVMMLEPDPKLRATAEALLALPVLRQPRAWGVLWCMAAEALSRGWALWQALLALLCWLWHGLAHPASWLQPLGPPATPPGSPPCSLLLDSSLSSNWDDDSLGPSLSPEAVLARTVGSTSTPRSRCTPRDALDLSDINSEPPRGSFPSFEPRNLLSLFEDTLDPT

LOK = LOK (Homo sapiens, UniProt O94804)
FES = FES (Homo sapiens, UniProt P07332)
CaMKK2 = CaMKK2 (Homo sapiens, UniProt Q96RR4)
PLK4 = biological target: T2, PLK4 (Homo sapiens, UniProt O00444)
T2 sequence (O00444 1-970): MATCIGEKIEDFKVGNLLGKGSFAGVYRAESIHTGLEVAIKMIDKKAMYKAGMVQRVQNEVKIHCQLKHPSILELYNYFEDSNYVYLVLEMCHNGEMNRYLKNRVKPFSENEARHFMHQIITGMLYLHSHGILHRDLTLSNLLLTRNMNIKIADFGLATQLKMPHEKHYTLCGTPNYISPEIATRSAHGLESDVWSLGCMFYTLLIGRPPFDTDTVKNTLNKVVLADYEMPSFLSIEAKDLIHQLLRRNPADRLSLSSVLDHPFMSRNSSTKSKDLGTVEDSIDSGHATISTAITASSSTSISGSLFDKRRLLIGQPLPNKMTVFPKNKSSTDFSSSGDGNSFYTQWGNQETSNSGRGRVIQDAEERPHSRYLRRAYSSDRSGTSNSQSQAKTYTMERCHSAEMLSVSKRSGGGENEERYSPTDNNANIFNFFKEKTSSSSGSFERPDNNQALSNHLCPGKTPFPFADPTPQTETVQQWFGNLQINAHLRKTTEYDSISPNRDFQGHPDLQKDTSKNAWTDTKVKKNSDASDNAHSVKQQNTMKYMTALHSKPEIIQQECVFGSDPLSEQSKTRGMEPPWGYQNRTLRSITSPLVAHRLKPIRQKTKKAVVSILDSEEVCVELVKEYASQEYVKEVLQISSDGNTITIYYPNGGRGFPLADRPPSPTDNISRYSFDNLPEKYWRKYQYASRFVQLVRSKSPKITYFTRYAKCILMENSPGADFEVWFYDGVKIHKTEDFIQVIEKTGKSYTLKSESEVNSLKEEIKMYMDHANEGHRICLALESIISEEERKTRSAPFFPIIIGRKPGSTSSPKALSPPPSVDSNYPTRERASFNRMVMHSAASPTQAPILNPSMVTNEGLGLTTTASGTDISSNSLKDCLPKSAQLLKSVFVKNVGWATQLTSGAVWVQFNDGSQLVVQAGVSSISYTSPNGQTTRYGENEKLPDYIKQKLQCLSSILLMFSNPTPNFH

DYRK1A = DYRK1A (Homo sapiens, UniProt Q13627)
PCTAIRE1 = PCTAIRE1 (Homo sapiens, UniProt Q00536)
MARK3 = MARK3 (Homo sapiens, UniProt P27448)
Chain of MARK3 (P27448 whole entry): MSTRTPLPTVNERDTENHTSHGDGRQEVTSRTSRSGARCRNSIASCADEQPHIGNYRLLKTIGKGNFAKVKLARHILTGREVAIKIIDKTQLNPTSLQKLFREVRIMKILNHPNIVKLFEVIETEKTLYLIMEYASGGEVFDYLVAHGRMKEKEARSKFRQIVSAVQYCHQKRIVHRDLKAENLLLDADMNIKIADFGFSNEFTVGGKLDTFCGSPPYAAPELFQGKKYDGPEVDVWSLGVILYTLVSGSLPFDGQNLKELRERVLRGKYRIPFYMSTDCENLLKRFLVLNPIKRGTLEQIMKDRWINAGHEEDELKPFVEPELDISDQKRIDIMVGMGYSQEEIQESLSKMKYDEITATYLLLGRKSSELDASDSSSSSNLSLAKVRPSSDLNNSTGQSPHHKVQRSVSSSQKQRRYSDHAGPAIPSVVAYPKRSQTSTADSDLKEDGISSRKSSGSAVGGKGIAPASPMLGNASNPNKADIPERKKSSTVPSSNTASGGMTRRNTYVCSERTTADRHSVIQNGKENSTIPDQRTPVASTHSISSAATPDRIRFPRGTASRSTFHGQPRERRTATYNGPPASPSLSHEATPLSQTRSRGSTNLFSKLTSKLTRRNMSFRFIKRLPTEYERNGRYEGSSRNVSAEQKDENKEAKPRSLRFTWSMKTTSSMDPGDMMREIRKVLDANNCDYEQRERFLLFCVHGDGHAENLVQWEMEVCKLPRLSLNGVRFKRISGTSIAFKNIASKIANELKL

Chain of FES (P07332 whole entry): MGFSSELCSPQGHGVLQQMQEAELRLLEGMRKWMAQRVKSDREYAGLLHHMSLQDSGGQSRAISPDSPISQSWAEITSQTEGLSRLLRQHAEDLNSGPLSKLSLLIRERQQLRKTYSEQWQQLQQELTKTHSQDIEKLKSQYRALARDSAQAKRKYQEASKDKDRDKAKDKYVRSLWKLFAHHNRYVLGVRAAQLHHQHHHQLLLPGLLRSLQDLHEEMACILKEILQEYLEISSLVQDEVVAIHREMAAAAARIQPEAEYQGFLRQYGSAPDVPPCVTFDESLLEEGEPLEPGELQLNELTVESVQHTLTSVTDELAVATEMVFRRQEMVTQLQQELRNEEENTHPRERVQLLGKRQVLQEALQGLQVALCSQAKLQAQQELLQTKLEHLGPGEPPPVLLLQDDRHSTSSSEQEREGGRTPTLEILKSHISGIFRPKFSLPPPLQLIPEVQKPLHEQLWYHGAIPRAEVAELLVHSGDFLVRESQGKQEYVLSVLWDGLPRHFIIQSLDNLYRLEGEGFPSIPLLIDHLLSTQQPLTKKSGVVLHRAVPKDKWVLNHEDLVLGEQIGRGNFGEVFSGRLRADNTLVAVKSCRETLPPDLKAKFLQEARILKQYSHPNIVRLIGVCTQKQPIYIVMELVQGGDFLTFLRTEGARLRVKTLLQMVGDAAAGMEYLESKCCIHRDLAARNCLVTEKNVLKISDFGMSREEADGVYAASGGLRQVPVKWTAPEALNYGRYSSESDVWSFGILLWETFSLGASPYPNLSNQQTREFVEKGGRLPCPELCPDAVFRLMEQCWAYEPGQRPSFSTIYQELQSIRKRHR
Chain of CaMK2d (Q13557 whole entry): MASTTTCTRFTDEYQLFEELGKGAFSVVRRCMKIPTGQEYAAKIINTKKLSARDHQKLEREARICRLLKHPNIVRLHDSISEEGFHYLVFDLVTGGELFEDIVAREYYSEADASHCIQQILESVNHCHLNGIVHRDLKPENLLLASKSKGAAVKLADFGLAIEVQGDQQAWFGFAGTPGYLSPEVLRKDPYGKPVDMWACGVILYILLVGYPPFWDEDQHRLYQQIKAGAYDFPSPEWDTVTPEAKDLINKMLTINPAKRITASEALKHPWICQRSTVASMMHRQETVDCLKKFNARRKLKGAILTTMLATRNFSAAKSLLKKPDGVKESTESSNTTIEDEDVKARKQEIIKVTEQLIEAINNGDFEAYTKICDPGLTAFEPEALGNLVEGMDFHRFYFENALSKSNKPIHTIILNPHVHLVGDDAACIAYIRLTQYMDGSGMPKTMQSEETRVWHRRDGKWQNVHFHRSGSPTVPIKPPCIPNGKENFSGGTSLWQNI
Chain of LOK (O94804 whole entry): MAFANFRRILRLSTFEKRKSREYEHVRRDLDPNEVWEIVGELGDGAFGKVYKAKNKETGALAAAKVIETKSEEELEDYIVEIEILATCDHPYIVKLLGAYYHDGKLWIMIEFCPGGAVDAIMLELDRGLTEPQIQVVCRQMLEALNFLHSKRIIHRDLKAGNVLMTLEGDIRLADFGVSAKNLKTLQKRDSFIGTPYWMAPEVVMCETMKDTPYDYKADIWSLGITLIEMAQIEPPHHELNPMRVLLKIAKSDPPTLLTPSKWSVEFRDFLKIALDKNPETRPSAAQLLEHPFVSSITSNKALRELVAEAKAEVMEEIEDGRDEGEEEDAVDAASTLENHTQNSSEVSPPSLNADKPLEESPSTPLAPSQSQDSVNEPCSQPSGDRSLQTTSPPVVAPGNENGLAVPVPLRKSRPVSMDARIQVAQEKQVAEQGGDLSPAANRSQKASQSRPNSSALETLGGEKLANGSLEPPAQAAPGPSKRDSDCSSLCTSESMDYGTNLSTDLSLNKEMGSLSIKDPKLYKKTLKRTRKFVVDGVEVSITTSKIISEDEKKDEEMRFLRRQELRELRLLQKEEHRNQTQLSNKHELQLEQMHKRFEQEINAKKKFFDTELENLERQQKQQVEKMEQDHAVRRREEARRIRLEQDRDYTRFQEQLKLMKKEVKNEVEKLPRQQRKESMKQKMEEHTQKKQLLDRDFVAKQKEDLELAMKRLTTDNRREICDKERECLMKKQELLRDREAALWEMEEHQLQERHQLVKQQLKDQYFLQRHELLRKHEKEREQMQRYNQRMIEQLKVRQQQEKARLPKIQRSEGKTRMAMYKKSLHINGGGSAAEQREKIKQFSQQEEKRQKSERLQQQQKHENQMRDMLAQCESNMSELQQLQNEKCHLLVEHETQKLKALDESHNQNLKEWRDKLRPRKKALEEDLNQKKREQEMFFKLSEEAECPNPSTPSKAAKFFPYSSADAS
Chain of CaMKK2 (Q96RR4 whole entry): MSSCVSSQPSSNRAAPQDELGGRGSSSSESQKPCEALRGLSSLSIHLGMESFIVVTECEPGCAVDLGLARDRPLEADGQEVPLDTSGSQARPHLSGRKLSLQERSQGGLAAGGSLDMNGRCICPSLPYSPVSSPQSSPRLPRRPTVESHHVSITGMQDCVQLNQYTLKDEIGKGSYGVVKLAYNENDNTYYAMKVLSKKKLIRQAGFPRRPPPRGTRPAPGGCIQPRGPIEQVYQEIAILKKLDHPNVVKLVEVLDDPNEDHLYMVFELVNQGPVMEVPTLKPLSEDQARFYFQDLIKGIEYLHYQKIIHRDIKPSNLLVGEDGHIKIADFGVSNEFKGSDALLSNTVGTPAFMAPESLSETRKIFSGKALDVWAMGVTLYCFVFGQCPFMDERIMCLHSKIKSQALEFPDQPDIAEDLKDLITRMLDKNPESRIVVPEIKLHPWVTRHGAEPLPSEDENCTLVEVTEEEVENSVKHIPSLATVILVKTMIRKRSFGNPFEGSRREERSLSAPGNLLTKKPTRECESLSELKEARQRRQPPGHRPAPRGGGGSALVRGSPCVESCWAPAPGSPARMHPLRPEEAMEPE
Chain of PCTAIRE1 (Q00536 whole entry): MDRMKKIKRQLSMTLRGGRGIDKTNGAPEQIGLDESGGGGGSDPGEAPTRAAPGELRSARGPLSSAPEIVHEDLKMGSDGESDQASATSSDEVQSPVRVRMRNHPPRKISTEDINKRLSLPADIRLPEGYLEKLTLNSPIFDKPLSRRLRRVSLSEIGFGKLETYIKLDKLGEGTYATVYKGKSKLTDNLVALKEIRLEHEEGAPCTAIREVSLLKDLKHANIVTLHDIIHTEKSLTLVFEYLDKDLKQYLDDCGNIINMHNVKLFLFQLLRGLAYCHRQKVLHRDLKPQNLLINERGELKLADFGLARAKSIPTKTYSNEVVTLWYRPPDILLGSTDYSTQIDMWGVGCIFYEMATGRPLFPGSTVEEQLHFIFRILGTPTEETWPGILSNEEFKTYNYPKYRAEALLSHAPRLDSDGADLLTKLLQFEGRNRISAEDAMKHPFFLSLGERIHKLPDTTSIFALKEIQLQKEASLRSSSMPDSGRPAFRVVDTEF
Chain of PAK4 (O96013 whole entry): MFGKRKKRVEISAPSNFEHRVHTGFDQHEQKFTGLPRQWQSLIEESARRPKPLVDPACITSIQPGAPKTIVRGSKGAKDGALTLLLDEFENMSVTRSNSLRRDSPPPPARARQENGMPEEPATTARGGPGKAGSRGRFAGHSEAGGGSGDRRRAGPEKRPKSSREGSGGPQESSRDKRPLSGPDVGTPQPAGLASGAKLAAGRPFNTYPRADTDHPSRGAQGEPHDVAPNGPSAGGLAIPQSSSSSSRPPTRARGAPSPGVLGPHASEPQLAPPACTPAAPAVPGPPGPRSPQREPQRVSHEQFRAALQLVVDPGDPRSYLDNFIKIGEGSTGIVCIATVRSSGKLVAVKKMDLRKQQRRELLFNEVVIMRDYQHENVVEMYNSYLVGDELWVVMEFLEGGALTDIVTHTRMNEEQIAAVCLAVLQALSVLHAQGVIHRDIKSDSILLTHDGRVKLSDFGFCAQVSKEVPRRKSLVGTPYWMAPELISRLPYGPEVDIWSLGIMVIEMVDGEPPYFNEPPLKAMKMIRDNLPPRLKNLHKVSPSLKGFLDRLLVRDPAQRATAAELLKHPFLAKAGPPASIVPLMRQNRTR

## COc1cc(N2CCN(C)CC2)ccc1Nc1ncc2cc(-c3ccc(-c4cccc(C)n4)cc3Cl)c(=O)n(CCCCN)c2n1 [compound 36, 8-(4-Aminobutyl)-6-(2-chloro-4-(6-methylpyridin-2-yl)phenyl)-2-((2-methoxy-4-(4-methylpiperazin-1-yl)phenyl)amino)pyrido[2,3-d]pyrimidin-7(8H)-one]
STLK3
  dTm 36: 9.3 °C
CK1e
  dTm 36: 5.1 °C
CaMK2d
  dTm 36: -0.2 °C
PAK4
  dTm 36: 3.9 °C
MYT1
  dTm 36: -2.8 °C
LOK
  dTm 36: -0.4 °C
FES
  dTm 36: 9.0 °C
CaMKK2
  dTm 36: 5.8 °C
PLK4
  dTm 36: 11.8 °C
DYRK1A
  dTm 36: -0.8 °C
PCTAIRE1
  dTm 36: 0.2 °C
MARK3
  dTm 36: 8.5 °C

## COc1ccc(O)c(Nc2ncc3cc(-c4ccc(-c5cccc(C)n5)cc4Cl)c(=O)n(CCCCN)c3n2)c1 [compound 34, 8-(4-Aminobutyl)-6-(2-chloro-4-(6-methylpyridin-2-yl)phenyl)-2-((2-hydroxy-5-methoxy-phenyl)amino)pyrido[2,3-d]pyrimidin-7(8H)-one]
STLK3
  dTm 34: 11.0 °C
CK1e
  dTm 34: 6.5 °C
CaMK2d
  dTm 34: -0.2 °C
PAK4
  dTm 34: 3.0 °C
MYT1
  dTm 34: -2.7 °C
LOK
  dTm 34: -0.3 °C
FES
  dTm 34: 7.6 °C
CaMKK2
  dTm 34: 4.3 °C
PLK4
  dTm 34: 8.8 °C
DYRK1A
  dTm 34: -1.0 °C
PCTAIRE1
  dTm 34: 0.6 °C
MARK3
  dTm 34: 5.1 °C

## COc1cc(N2CCOCC2)ccc1Nc1ncc2cc(-c3ccc(-c4cccc(C)n4)cc3Cl)c(=O)n(CCCCN)c2n1 [compound 35, 8-(4-Aminobutyl)-6-(2-chloro-4-(6-methylpyridin-2-yl)phenyl)-2-((2-methoxy-4-morpholino-phenyl)amino)pyrido[2,3-d]pyrimidin-7(8H)-one]
STLK3
  dTm 35: 13.4 °C
CK1e
  dTm 35: 6.6 °C
CaMK2d
  dTm 35: -0.9 °C
PAK4
  dTm 35: 4.1 °C
MYT1
  dTm 35: -3.5 °C
LOK
  dTm 35: -0.8 °C
FES
  dTm 35: 8.3 °C
CaMKK2
  dTm 35: 6.9 °C
PLK4
  dTm 35: 13.6 °C
DYRK1A
  dTm 35: -2.3 °C
PCTAIRE1
  dTm 35: 0.1 °C
MARK3
  dTm 35: 6.9 °C

## Cc1cccc(-c2ccc(-c3cc4cnc(Nc5ccc(F)c(CO)c5)nc4n(CCCCN)c3=O)c(Cl)c2)n1 [compound 33, 8-(4-Aminobutyl)-6-(2-chloro-4-(6-methylpyridin-2-yl)phenyl)-2-((4-fluoro-3-(hydroxymethyl)phenyl)amino)pyrido[2,3-d]pyrimidin-7(8H)-one]
STLK3
  dTm 33: 16.8 °C
CK1e
  dTm 33: 6.9 °C
CaMK2d
  dTm 33: -0.2 °C
PAK4
  dTm 33: 8.2 °C
MYT1
  dTm 33: -1.8 °C
LOK
  dTm 33: -0.3 °C
FES
  dTm 33: 8.9 °C
CaMKK2
  dTm 33: 4.3 °C
PLK4
  dTm 33: 13.1 °C
DYRK1A
  dTm 33: -0.6 °C
PCTAIRE1
  dTm 33: 5.2 °C
MARK3
  dTm 33: 11.5 °C
